Data: ChEMBL document CHEMBL3132769, “Fragment growing to retain or alter the selectivity of anchored kinase hinge-binding fragments” (Medchemcomm, 2014)

Experiments:
[1] = molecular target: T1, Aurora kinase A (Homo sapiens) (UniProt O14965); experiment: Inhibition of human full length AurA expressed in baculovirus assessed as substrate phosphorylation using fluorescence-labelled peptides as substrate at 95 uM after 90 mins by microfluidic peptide phosphorylation assay
T1 sequence (whole entry): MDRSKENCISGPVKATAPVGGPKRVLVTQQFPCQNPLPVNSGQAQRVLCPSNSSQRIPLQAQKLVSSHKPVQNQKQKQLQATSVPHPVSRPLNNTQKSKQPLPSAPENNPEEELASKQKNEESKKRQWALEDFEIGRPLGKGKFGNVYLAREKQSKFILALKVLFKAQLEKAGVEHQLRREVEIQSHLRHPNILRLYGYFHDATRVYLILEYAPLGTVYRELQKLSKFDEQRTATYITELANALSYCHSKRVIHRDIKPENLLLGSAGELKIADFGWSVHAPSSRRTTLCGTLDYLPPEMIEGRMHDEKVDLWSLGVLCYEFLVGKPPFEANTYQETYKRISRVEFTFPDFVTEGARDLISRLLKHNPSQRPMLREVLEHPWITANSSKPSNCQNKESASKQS

[2] = molecular target: T2, Serine/threonine-protein kinase D1 (Homo sapiens) (UniProt Q15139); experiment: Inhibition of human full length PKD1 expressed in baculovirus assessed as substrate phosphorylation using fluorescence-labelled peptides as substrate at 8 uM after 90 mins by microfluidic peptide phosphorylation assay
T2 sequence (whole entry): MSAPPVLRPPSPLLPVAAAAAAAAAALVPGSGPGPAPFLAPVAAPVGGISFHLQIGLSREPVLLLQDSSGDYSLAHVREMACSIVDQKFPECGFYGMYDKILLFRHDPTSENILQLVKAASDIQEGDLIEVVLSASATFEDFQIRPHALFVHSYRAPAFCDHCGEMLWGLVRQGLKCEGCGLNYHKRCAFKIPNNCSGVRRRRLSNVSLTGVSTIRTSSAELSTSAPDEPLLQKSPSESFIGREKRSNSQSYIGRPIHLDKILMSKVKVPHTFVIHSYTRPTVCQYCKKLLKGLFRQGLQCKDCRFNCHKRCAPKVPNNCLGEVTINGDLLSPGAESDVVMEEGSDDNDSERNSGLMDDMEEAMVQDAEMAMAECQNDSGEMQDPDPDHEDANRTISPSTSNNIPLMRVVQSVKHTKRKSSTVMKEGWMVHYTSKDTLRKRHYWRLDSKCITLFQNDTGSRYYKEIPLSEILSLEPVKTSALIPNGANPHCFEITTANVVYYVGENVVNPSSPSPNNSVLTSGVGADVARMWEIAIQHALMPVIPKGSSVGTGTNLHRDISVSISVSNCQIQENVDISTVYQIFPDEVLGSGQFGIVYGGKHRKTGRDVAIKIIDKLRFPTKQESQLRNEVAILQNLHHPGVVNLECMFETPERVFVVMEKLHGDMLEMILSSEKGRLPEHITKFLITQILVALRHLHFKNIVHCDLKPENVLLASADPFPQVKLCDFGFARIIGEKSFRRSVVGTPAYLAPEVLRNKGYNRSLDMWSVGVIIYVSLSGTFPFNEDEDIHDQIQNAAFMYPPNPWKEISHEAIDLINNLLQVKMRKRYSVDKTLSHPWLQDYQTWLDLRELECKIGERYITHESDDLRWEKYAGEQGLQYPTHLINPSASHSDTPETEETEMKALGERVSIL

[3] = molecular target: T3, Inhibitor of nuclear factor kappa-B kinase subunit beta (Homo sapiens) (UniProt O14920); experiment: Inhibition of human full length IKK beta expressed in baculovirus assessed as substrate phosphorylation using fluorescence-labelled peptides as substrate at 2 uM after 90 mins by microfluidic peptide phosphorylation assay
T3 sequence (whole entry): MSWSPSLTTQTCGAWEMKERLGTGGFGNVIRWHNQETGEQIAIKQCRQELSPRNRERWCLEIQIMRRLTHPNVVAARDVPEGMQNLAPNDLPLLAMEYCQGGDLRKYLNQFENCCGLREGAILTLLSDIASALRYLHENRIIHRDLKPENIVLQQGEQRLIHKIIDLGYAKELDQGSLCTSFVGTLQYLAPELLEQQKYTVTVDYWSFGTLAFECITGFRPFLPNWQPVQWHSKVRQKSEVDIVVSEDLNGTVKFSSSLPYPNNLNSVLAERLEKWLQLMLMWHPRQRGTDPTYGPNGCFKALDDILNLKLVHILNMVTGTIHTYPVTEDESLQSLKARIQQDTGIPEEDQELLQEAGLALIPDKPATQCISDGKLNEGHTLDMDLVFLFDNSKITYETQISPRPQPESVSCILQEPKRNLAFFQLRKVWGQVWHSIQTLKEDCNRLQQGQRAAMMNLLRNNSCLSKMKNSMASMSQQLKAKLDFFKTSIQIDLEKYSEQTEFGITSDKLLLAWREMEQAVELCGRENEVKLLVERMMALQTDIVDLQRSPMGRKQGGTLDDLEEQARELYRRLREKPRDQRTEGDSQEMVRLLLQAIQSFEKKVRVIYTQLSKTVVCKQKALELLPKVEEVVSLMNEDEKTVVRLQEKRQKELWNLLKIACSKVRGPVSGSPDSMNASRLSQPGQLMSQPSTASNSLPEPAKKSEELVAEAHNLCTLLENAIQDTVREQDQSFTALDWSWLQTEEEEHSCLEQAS

[4] = molecular target: T4, cGMP-dependent protein kinase 1 (Homo sapiens) (UniProt Q13976); experiment: Inhibition of human full length PKG-1a expressed in baculovirus assessed as substrate phosphorylation using fluorescence-labelled peptides as substrate at […] after 90 mins by microfluidic peptide phosphorylation assay
T4 sequence (whole entry): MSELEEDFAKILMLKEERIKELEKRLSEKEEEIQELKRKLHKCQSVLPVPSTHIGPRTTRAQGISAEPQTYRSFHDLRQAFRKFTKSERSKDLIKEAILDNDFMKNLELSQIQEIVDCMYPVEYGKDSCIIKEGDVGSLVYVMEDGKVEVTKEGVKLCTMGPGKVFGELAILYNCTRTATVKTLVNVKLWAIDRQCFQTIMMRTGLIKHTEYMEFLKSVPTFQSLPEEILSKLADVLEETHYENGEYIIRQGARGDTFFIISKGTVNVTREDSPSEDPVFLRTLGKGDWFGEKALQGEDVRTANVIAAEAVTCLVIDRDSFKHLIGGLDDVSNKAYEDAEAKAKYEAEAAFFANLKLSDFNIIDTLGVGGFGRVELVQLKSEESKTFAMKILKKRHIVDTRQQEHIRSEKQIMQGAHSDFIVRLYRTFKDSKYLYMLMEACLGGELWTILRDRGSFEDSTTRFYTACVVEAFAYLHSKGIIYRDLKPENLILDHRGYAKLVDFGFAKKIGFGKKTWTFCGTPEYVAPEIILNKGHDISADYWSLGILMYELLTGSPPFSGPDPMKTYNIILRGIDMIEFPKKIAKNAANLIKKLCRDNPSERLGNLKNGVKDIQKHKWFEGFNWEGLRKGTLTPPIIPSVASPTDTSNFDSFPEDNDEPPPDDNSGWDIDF

## NCCc1ccc(-c2ncnc3[nH]cnc23)cc1
[1]
  inhibition: 85%

## NCC1CCN(c2ncnc3[nH]ccc23)CC1
[2]
  inhibition: 75.5%

## NC1CCN(c2ncnc3[nH]ccc23)CC1
[3]
  inhibition: 1%

## COC(=O)c1cnc(Nc2cnc(C#N)cn2)cc1NCC1CCNCC1
[4]
  inhibition: 4.5%
